pEC50: −log10 of the molar value.
What was measured:
Format in all cases: cell-based
SDM103T2 cells = assay: SDM103T2 proliferation and cell viability assay (CTG); settings: SDM103T2 cell line, 144 hours
Protocol: SDM103T2 cells were trypsinised, counted and plated at the specified cell density in 200 μl of growth media in 96 well flat bottom tissue culture treated plates. The plated cells were incubated overnight at 37° C., 5% CO2 before being treated with compounds in triplicate for each assay point. 50 μl of the serially diluted compound was added to each well giving a final DMSO concentration of 0.5% per well and a total volume of 250 μl per well. The treated cells were incubated for 144 hours (6 days) at 37° C., 5% CO2. Following compound treatment the remaining viable cells were detected using the Promega CellTiter-Glo 2.0 assay as follows: 150 μl of media was removed from each of the wells to be assayed and 100 μl of room temperature CellTiter-Glo 2.0 reagent was added. The plate was placed on an orbital shaker at 500 rpm at room temperature for 2 minutes, and then incubated without shaking for a further 10 minutes at room temperature. 150 μl of cell lysate was removed from each well and dispensed into a single well of a white opaque 96 well plate. Luminescence at 545 nm was read using a BMG CLARIOstar plate reader. The luminescent signal was directly proportional to number of viable cells, the percent of viable cells relative to the DMSO control was then calculated for each assay point. Percent viability relative to DMSO control was plotted against compound concentration and a curve fitted with non-linear regression in GraphPad Prism software. EC50 and IC50 values were calculated using GraphPad Prism software as follows: For EC50 values a non-constrained four-parameter logistic curve fit was used (Sigmoidal, 4PL, X is concentration). For Absolute IC50 values the baseline was constrained to Y=0 (Absolute IC50, X is concentration). Area Under the Curve (AUC): Prism computes area-under-the-curve by the trapezoidal method. The analysis sees a fitted curve as simply a series of connected XY points. Prism simply computes the area under the “curve” defined by connecting the points by straight lines. The units of the AUC are the units of the Y axis times units of the X axis.

Mero14 cells = assay: Mero14 proliferation and cell viability assay (CTG); settings: Mero14 cell line, 144 hours
Protocol: Mero14 cells were trypsinised, counted and plated at 400 cells/well in 200 μl of growth media in 96 well flat bottom tissue culture treated plates. The plated cells were incubated overnight at 37° C., 5% CO2 before being treated with compounds in triplicate for each assay point. 50 μl of the serially diluted compound was added to each well giving a final DMSO concentration of 0.5% per well and a total volume of 250 μl per well. The treated cells were incubated for 144 hours (6 days) at 37° C., 5% CO2. Following compound treatment the remaining viable cells were detected using the Promega CellTiter-Glo 2.0 assay as follows: 150 μl of media was removed from each of the wells to be assayed and 100 μl of room temperature CellTiter-Glo 2.0 reagent was added. The plate was placed on an orbital shaker at 500 rpm at room temperature for 2 minutes, and then incubated without shaking for a further 10 minutes at room temperature. 150 μl of cell lysate was removed from each well and dispensed into a single well of a white opaque 96 well plate.
Luminescence at 545 nm was read using a BMG CLARIOstar plate reader. The luminescent signal was directly proportional to number of viable cells, the percent of viable cells relative to the DMSO control was then calculated for each assay point. Percent viability relative to DMSO control is plotted against compound concentration and a curve fitted with non-linear regression in GraphPad Prism software. IC50 values were calculated using GraphPad Prism software as follows: For Relative IC50 values, a non-constrained four-parameter logistic curve fit was used (Sigmoidal, 4PL, X is concentration). For Absolute IC50 values the baseline was constrained to Y=0 (Absolute IC50, X is concentration). Area Under the Curve (AUC): Prism computed area-under-the-curve by the trapezoidal method. The analysis sees a fitted curve as simply a series of connected XY points. Prism simply computes the area under the “curve” defined by connecting the points by straight lines. The units of the AUC are the units of the Y axis times units of the X axis.

MSTO-211H cells = assay: MSTO-211H proliferation and cell viability assay (CTG); settings: Homo sapiens, MSTO-211H cell line, 144 hours
Protocol: MSTO-211H cells were trypsinised, counted and plated at the specified cell density in 200 μl of growth media in 96 well flat bottom tissue culture treated plates. The plated cells were incubated overnight at 37° C., 5% CO2 before being treated with compounds in triplicate for each assay point. 50 μl of the serially diluted compound was added to each well giving a final DMSO concentration of 0.5% per well and a total volume of 250 μl per well. The treated cells were incubated for 144 hours (6 days) at 37° C., 5% CO2. Following compound treatment, the remaining viable cells were detected using the Promega CellTiter-Glo 2.0 assay as follows: 150 μl of media was removed from each of the wells to be assayed and 100 μl of room temperature CellTiter-Glo 2.0 reagent was added. The plate was placed on an orbital shaker at 500 rpm at room temperature for 2 minutes, and then incubated without shaking for a further 10 minutes at room temperature. 150 μl of cell lysate was removed from each well and dispensed into a single well of a white opaque 96 well plate. Luminescence at 545 nm is read using a BMG CLARIOstar plate reader. The luminescent signal was directly proportional to number of viable cells, the percent of viable cells relative to the DMSO control was then calculated for each assay point. Percent viability relative to DMSO control was plotted against compound concentration and a curve fitted with non-linear regression in GraphPad Prism software. IC50 values were calculated using GraphPad Prism software as follows: For Relative IC50 values a non-constrained four-parameter logistic curve fit was used (Sigmoidal, 4PL, X is concentration). For Absolute IC50 values the baseline was constrained to Y=0 (Absolute IC50, X is concentration). Area Under the Curve (AUC): Prism computes area-under-the-curve by the trapezoidal method. The analysis sees a fitted curve as simply a series of connected XY points. Prism simply computes the area under the “curve” defined by connecting the points by straight lines. The units of the AUC are the units of the Y axis times units of the X axis.

SMILES	pEC50 (SDM103T2 cells)	pEC50 (Mero14 cells)	pEC50 (MSTO-211H cells)
C[C@H](NC(=O)c1cnc2c(C3=CC[C@@H](C(F)(F)F)CC3)cccc2c1)c1ncco1 (single isomer, unassigned) [Compound 19, N-(1-(oxazol-2-yl)ethyl)-8-(4-(trifluoromethyl)cyclohex-1-en-1-yl)quinoline-3-carboxamide]	> 6.70	> 6.70	> 6.70
FC(F)(F)c1ccc(CN2CCC(C3CC(Br)=NO3)CC2)cc1 (stereo not drawn) [Compound 1-2, reference compound]	< 6.00	6.00 to 6.70	> 6.70
C=CC(=O)Nc1ccc(C)c(Oc2ccc(Cl)cc2)c1 [Compound 1-3, reference compound]	> 6.70	> 6.70	> 6.70
C[C@H](CO)NC(=O)c1cnc2c(C3=CCC(C(F)(F)F)CC3)cccc2c1 (stereo partly drawn) [Compound 7, N—((R)-1-hydroxypropan-2-yl)-8-(4-(trifluoromethyl)cyclohex-1-en-1-yl)quinoline-3-carboxamide]	> 6.70	> 6.70	> 6.70
O=C(NCc1ncco1)c1cnc2c(C3=CCC(C(F)(F)F)CC3)cccc2c1 (stereo not drawn) [Compound 11, N-(oxazol-2-ylmethyl)-8-(4-(trifluoromethyl)cyclohex-1-en-1-yl)quinoline-3-carboxamide]	> 6.70	> 6.70	> 6.70
O=C(NCc1ccn[nH]1)c1cnc2c(C3=CCC(C(F)(F)F)CC3)cccc2c1 (stereo not drawn) [Compound 47, N-((1H-pyrazol-5-yl)methyl)-8-(4-(trifluoromethyl)cyclohex-1-en-1-yl)quinoline-3-carboxamide]	> 6.70	> 6.70	> 6.70
COC[C@H](CO)NC(=O)c1cnc2c(C3=CCC(C(F)(F)F)CC3)cccc2c1 (stereo partly drawn) [Compound 62, N—((S)-1-hydroxy-3-methoxypropan-2-yl)-8-(4-(trifluoromethyl)cyclohex-1-en-1-yl)quinoline-3-carboxamide]	> 6.70	> 6.70	> 6.70
COc1cc(C2=CCC(C(F)(F)F)CC2)c2ncc(C(=O)N[C@H](C)c3ncco3)cc2c1 (stereo partly drawn) [Compound 109, 6-methoxy-N—((R)-1-(oxazol-2-yl)ethyl)-8-(4-(trifluoromethyl)cyclohex-1-en-1-yl)quinoline-3-carboxamide]	> 6.70	> 6.70	> 6.70
COc1cc(C2=CCC(C(F)(F)F)CC2)c2ncc(C(=O)N[C@H](C)CO)cc2c1 (stereo partly drawn) [Compound 110, N—((R)-1-hydroxypropan-2-yl)-6-methoxy-8-(4-(trifluoromethyl)cyclohex-1-en-1-yl)quinoline-3-carboxamide]	> 6.70	> 6.70	> 6.70
C[C@H](CO)NC(=O)c1cnc2c(C3=CCC4(CC3)CC(F)(F)C4)cccc2c1 [Compound 165, (R)-8-(2,2-difluorospiro[3.5]non-6-en-7-yl)-N-(1-hydroxypropan-2-yl)quinoline-3-carboxamide]	> 6.70	> 6.70	> 6.70
C[C@@H](NC(=O)c1cnc2c(C3=CCC4(CC3)CC4)cccc2c1)c1ncco1 [Compound 166, (R)—N-(1-(oxazol-2-yl)ethyl)-8-(spiro[2.5]oct-5-en-6-yl)quinoline-3-carboxamide]	> 6.70	> 6.70	> 6.70
